# Entries after “also recorded” stand apart in the source; their conditions may differ.
# What was measured:
# HK853 [1] = target: T1, HK853 (Thermotoga maritima, UniProt Q9WZV7); test: HK853 aggregation analysis (native-PAGE); conditions: for Compound-induced HK853 aggregation: native-PAGE, Fig. S3
# Procedure: HK853 Aggregation Analysis
# To analyze the propensity for compounds to cause aggregation, each was mixed at six […]
# (5% (v/v) DMSO final). After incubating at RT for 30 min, 8.6 µL native-PAGE sample loading buffer was added, and 15 µL was loaded onto a 7.5% polyacrylamide gel. Proteins were resolved by native-PAGE and silver staining. Compound-induced aggregation was detected by the disappearance of the dimeric HK853 band. NH125 (Tocris Bioscience) was used as a positive […]
# P. aeruginosa PA14 [2] = test: Growth of PA14 cultures with inhibitors (OD620, CFU); type: cell-based, Pseudomonas aeruginosa; conditions: for Bacteriostatic and bactericidal properties in PA14 cultures: OD620 measurements and CFU studies, even at high concentrations (500 μM); for t = 9 h, OD620 / t = 24 h, OD620: Table S3, PA14 cultures for metabolomics, 200 µM, 37 °C
# P. aeruginosa PA14 [3] = test: Swarming assay; type: cell-based, Pseudomonas aeruginosa; conditions: 200 μM; for Swarming motility: after 5 days
# Procedure: (§1) Swarming assays and quantification of rhamnolipids in swarm-plates
# (§2) We followed the revised protocol developed by Trembley et al. for P. aeruginosa swarm assays.6 Plates consisted of modified M9 medium [20 mM NH4Cl; 12 mM Na2HPO4; 22 mM KH2PO4; 8.6 mM NaCl; 1 mM MgSO4; 1 mM CaCl2•2H2O; 11 mM dextrose; 0.5% casamino acids (Difco)] solidified with Bacto-agar (Difco). The M9 media without MgSO4 and CaCl2•2H2O was autoclaved, which were added after cooling the media ~60 °C. The pH was adjusted after autoclaving with HCl and NaOH (pH = 7.5). Then, a 1-in-100 dilution of filter-sterile stock containing 1 mg/mL Nile red (Sigma Aldrich) dissolved in 85% ethylene glycol and added (prepared the day of use to limit photoinactivation).7 Twenty mL of this media was poured into […]
# (for the control experiments, same amount of DMSO was added). Plates were allowed to dry for 60 min, with the first 20 min under UV light to ensure plates were sterile following pH adjustment. P. aeruginosa PA14 strain was grown overnight (~16 h) in LB media at 37 °C and 200 RPM. Five µl of bacteria were spotted at the center of each plate, which were incubated at 30 °C in the dark and ~20% humidity. The plates were intermittently taken out for fluorescence scanning [scan settings: GE Typhoon Variable Mode Imager 9500, using 532-nm laser with DY-520XL (λex: 520 nm, λem: 664 nm)]. The scans were visualized and integrated density measurements of whole-plate fluorescence was measured using ImageJ software. Images of these plates were also taken with a Nikon D5200 DSLR camera, which were processed in Adobe Photoshop Lightroom 5 (Mac version) for phase-contrast.
# Figure S9. Swarming motility of PA14 in the presence of Rilu-inhibitors at 200 µM after 5 days.
# (§3) The top images are fluorescence scans for detecting Nile Red and the bottom images were taken
# Vero cells = system: Vero cells; design: method as in PMID 25531939; conditions: at <180 μM; cited from earlier work
# P. aeruginosa PA14 [4] = test: Biofilm assay (microtitre, crystal violet); type: cell-based, Pseudomonas aeruginosa; conditions: high concentrations, PA14, 24 h, relative to DMSO control
# Procedure: (§4) P. aeruginosa PA14 strain was grown overnight (~16 h) in LB media at 37 °C and 200 RPM.
# The overnight culture was diluted 1:100 in fresh LB media. 200 µL of this culture was then used to inoculate each well of a microtiter plate, to which Rilu-inhibitors were added in DMSO to final concentration of 200 µM or 500 µM (for the control experiments, same amount of DMSO was added). Eight wells per plate were used for each sample. These cultures were grown for 24 h at 37 °C without shaking. After growth, the planktonic cultures were carefully removed to a new microtitre plate to measure the OD620 values. The adhered cells were washed carefully three times with sterile PBS buffer, and then the cells were fixed with MeOH for 20 min. After removing the MeOH, the wells were allowed to dry for 10 min, followed by addition of 0.1% crystal violet. After 15 min of incubation, the stain was carefully removed without touching the rest of the plate. The excess stain was washed away 3 times from the wells with distilled water and the plate was allowed to dry for ~1 h. Finally, the adhered stain was redissolved in 30% acetic acid solution (for 1 h) and absorbance was measured at 595 nm. Assays were repeated in […]
# Figure S8. (a) Different stages of biofilm formation. (b) Biofilm formation assessment. All values are plotted relative to a DMSO-treated control and normalized to the final cell density (OD620). […]
# P. aeruginosa PA14 [5] = test: LC-MS/MS analyses of metabolites in PA14 culture supernatant; type: cell-based, Pseudomonas aeruginosa; conditions: 200 μM, 9 h, 37 °C, relative to DMSO control
# P. aeruginosa PA14 [6] = test: RT-qPCR of virulence and TCS genes in PA14; type: cell-based, Pseudomonas aeruginosa; conditions: PA14, 9 h, 200 and 500 μM
# Procedure: RNA isolation, Reverse Transcriptase -qPCR experiments
# as §4
# The overnight culture was diluted 1:100 in fresh LB media. Four mL of this culture was then taken in a 15 mL borosilicate glass tube, to which Rilu-inhibitors in DMSO were added to a final concentration of 200 µM or 500 µM (for the control experiments, same amount of DMSO was added). These cultures were then grown for 9 h (late exponential phase) at 37 °C and 200 RPM, OD620 ~0.7. Total RNA was extracted from ~2 mL cell pellet using an RNAEasy Mini kit (Qiagen), according to the manufacturer’s instructions, including exogenous DNase treatment with Ambion Turbo-DNAse Kits. RNA integrity was confirmed by native gel electrophoresis and the quantities were measured using a nanophotometer. cDNA was generated using the DNA-free total RNA using (Applied Biosystems High Capacity cDNA Reverse Transcription Kits) random-primed reverse transcriptase reaction following the manufacturer’s protocol. The cDNA was used as template for quantitative PCR (BioRad MyiQ2 dual-color system) using the SYBR Green detection system (BioRad) on white 96-well PCR plates. Melt curves were obtained for every run, and any wells with multiple peaks were excluded from analysis. Signal was standardized to 2 housekeeping genes, recA, rpoD using the ∆∆C method equation:8 Relative […]
# expression = 2(CT standard −C T sample), where CT (cycle time) was determined automatically by the Real Time iQ5 PCR software (BioRad). Primers (Integrated DNA Technologies) for RT-qPCR were designed using NCBI Primer-Blast software. Criteria for primer design were a […]
# ; primer size = 18 –22 bp; product size = 80–130 bp; product Tm
# = 60– 90 °C. Samples were assayed in triplicate and statistical analyses was done with one-way ANOVA (Origin 9.1 software).
# Table S5. List of primer pairs used in qPCR
# Target gene Forward Reverse […]
# HK853 [7] = target: T1, HK853; test: Inhibition of HK853 activity (BODIPY-ATPγS competition, HK autophosphorylation); type: biochemical; conditions: for IC50 values for HK853 inhibitory activity: Fig. 1b and text, HK autophosphorylation; for IC50 values (µM) (95% confidence interval), n = 2: Table S1, HK853 inhibition
# P. aeruginosa PA14 [8] = test: Quantification of rhamnolipids in swarm-plates (Nile red, ImageJ); type: cell-based, Pseudomonas aeruginosa; conditions: 200 μM, Nile red fluorescence, quantified with ImageJ
# Procedure: as §1, §2
# (for the control experiments, same amount of DMSO was added). Plates were allowed to dry for 60 min, with the first 20 min under UV light to ensure plates were sterile following pH adjustment. […] The plates were intermittently taken out for fluorescence scanning [scan settings: GE Typhoon Variable Mode Imager 9500, using 532-nm laser with DY-520XL (λex: 520 nm, λem: 664 nm)]. The scans were visualized and integrated density measurements of whole-plate fluorescence was measured using ImageJ software. […]
# as §3
# P. aeruginosa PA14 [9] = test: Rapid attachment assay; type: cell-based, Pseudomonas aeruginosa; conditions: PA14, 60 min adhesion, relative to DMSO control
# Procedure: as §4
# The overnight cultures were washed and diluted in LB medium to an OD620 value of 1.0. 100 µL of this suspension was used to inoculate each well of a microtiter plate in presence of Rilu-inhibitors in DMSO at 200 µM or 500 µM (for the control experiments, same amount of DMSO was added). Eight wells per plate were used for each sample. Cells were allowed to adhere for 60 min at 37 °C and 200 RPM. After the planktonic cells were removed, staining with crystal violet was carried out, as described in the biofilm assay procedure. Assays were repeated in triplicate.
# T1 sequence (Q9WZV7 entry or part of it): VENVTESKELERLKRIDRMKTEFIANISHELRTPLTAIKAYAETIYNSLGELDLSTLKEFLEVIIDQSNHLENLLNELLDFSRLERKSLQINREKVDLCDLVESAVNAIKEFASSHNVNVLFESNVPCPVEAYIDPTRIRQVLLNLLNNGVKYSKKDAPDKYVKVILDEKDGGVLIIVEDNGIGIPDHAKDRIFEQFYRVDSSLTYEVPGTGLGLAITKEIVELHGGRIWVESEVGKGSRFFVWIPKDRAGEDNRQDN
SMILES,Compound-induced HK853 aggregation (HK853 [1]),Bacteriostatic and bactericidal properties in PA14 cultures (P. aeruginosa PA14 [2]),Swarming motility (P. aeruginosa PA14 [3]),"t = 9 h, OD620 (P. aeruginosa PA14 [2])","t = 24 h, OD620 (P. aeruginosa PA14 [2])","Effect on expression of virulence-associated genes (pqsR, fleQ and pilA) (P. aeruginosa PA14 [6])",other results
"CCCCCCCCCCCCCCCCn1cc[n+](Cc2ccccc2)c1C.[I-] [NH-125, reference compound]",,,,,,,"Concentration causing disappearance of the protein dimer band (protein aggregation) (HK853 [1]; native-PAGE of HK853, positive aggregation control): ≥ 10 µM"
"Nc1nc2ccc(OC(F)(F)F)cc2s1 [Rilu-1, riluzole, reference compound]",non-aggregators,None of these compounds substantially slowed growth or killed the organism,moderate difference in swarming,,,,
Nc1nc2ccc(Oc3ccc4nc(N)sc4c3)cc2s1 [Rilu-2],non-aggregators,None of these compounds substantially slowed growth or killed the organism,,0.851,1.60,,Cytotoxicity to Vero cells (Vero cells): not cytotoxic; Reduction of biofilm mass (P. aeruginosa PA14 [4]): 25%; Reduction of PCN (P. aeruginosa PA14 [5]): ~85%; Reduction of PYO (P. aeruginosa PA14 [5]): 70%
Nc1nc2ccc([N+](=O)[O-])cc2s1 [Rilu-4],non-aggregators,None of these compounds substantially slowed growth or killed the organism,moderate difference in swarming,0.842,1.65,substantially downregulated,
Cc1nc2ccc(N)cc2s1 [Rilu-7],,,,,,does not significantly affect,
Nc1nc2c(Cl)cc(Cl)cc2s1 [Rilu-10],,,,,,,"IC50 values for HK853 inhibitory activity (HK853 [7]): No inhibition; also recorded: inactive; IC50 values (µM) (95% confidence interval), n = 2 (HK853 [7]): No Inhibition"
Nc1nc2cc(Br)c(Br)cc2s1 [Rilu-11],,,,,,,"IC50 values for HK853 inhibitory activity (HK853 [7]): No inhibition; also recorded: inactive; IC50 values (µM) (95% confidence interval), n = 2 (HK853 [7]): No Inhibition"
Nc1nc2cc3sc(N)nc3cc2s1 [Rilu-12],non-aggregators,None of these compounds substantially slowed growth or killed the organism,major impairment in motility,0.883,1.65,substantially downregulated,"Reduction of RL production on swarm agar plates (P. aeruginosa PA14 [8]): 70%; Reduction in surface attachment (P. aeruginosa PA14 [9]): 70%; Amount of PCA produced (P. aeruginosa PA14 [5]): ~8%; Swarming motility, tendril formation (P. aeruginosa PA14 [3]; after 40 h): most prominently"
